Results published in patent US20150307938A1, “METHOD TO IDENTIFY A NOVEL CLASS OF IMMUNOLOGIC ADJUVANTS” (Lancell, L.L.C., priority 2011, published 2015).

Test system: skin
Assay: Affymetrix microarray of skin, DBP-4 hr and analogs vs. untreated; gene selection by log-2 fold change, Wilcoxon, Kendall tau (Tables 8, 9)
Format: in vivo, mouse
Details: for Kendall: Kendall tau coefficient

CCCCOC(=O)c1ccccc1C(=O)OCCCC [DBP, dibutylphthalate]
DBP Expression: Socs2 (NM_001168655_at, DBP-4 hr): 8.92
DBP Expression: Socs2 (NM_001168656_at, DBP-4 hr): 8.92
DBP Expression: Socs2 (NM_001168657_at, DBP-4 hr): 8.92
DBP Expression: Arid5a (NM_001172205_at, DBP-4 hr): 7.61
DBP Expression: Arid5a (NM_001172206_at, DBP-4 hr): 7.61
DBP Expression: Nfkb2 (NM_001177369_at, DBP-4 hr): 8.26
DBP Expression: Nfkb2 (NM_001177370_at, DBP-4 hr): 8.26
DBP Expression: Cd44 (NM_001177785_at, DBP-4 hr): 9.82
DBP Expression: Cd44 (NM_001177786_at, DBP-4 hr): 9.82
DBP Expression: Cd44 (NM_001177787_at, DBP-4 hr): 9.82
DBP Expression: Smox (NM_001177833_at, DBP-4 hr): 8.18
DBP Expression: Smox (NM_001177834_at, DBP-4 hr): 8.24
DBP Expression: Smox (NM_001177835_at, DBP-4 hr): 8.44
DBP Expression: Smox (NM_001177836_at, DBP-4 hr): 8.07
DBP Expression: Smox (NM_001177837_at, DBP-4 hr): 8.07
DBP Expression: Smox (NM_001177838_at, DBP-4 hr): 8.44
DBP Expression: Smox (NM_001177839_at, DBP-4 hr): 8.07
DBP Expression: Smox (NM_001177840_at, DBP-4 hr): 8.44
DBP Expression: Pde4b (NM_001177980_at, DBP-4 hr): 8.96
DBP Expression: Pde4b (NM_001177981_at, DBP-4 hr): 8.96
DBP Expression: Pde4b (NM_001177982_at, DBP-4 hr): 8.96
DBP Expression: 5730408K05Rik (NR_027866_at, DBP-4 hr): 8.14
DBP Expression: Arid5a (NR_033310_at, DBP-4 hr): 7.61
Wilcoxon (Socs2 NM_007706_at, DBP-4 hr vs. untreated): No
Kendall (Socs2 NM_007706_at): No
Wilcoxon (Socs3 NM_007707_at, DBP-4 hr vs. untreated): Yes
Kendall (Socs3 NM_007707_at): No
Wilcoxon (Timp1 NM_001044384_at, DBP-4 hr vs. untreated): Yes
Kendall (Timp1 NM_001044384_at): No
DBP Expression: LOC100504977 (XM_003085794_at, DBP-4 hr): 8.47
Wilcoxon: 1810046J19Rik (gene 1810046J19Rik, NM_025559_at, DBP-4 hr vs. untreated): No
Kendall: 1810046J19Rik (gene 1810046J19Rik, NM_025559_at, gene expression vs. output): Yes
Wilcoxon: 4933434E20Rik (gene 4933434E20Rik, NM_025762_at, DBP-4 hr vs. untreated): No
Kendall: 4933434E20Rik (gene 4933434E20Rik, NM_025762_at, gene expression vs. output): Yes
Log2 Expression Level (gene #1 of Table 8): 6.82
Log2 Expression Level (gene #2 of Table 8): 6.93
Log2 Expression Level (gene #3 of Table 8): 9.82
Log2 Expression Level (gene #4 of Table 8): 9.82
Log2 Expression Level (gene #5 of Table 8): 7.53
Log2 Expression Level (gene #6 of Table 8): 6.91
Log2 Expression Level (gene #7 of Table 8): 6.26
Log2 Expression Level (gene #8 of Table 8): 6.91
Log2 Expression Level (gene #9 of Table 8): 6.91
Log2 Expression Level (gene #10 of Table 8): 6.91
Log2 Expression Level (gene #11 of Table 8): 6.26
Log2 Expression Level (gene #12 of Table 8): 6.26
Log2 Expression Level (gene #13 of Table 8): 6.26
Log2 Expression Level (gene #14 of Table 8): 6.13
Log2 Expression Level (gene #15 of Table 8): 6.13
Log2 Expression Level (gene #16 of Table 8): 7.45
Log2 Expression Level (gene #17 of Table 8): 9.48
Log2 Expression Level (gene #18 of Table 8): 9.48
Log2 Expression Level (gene #19 of Table 8): 9.61
Log2 Expression Level (gene #20 of Table 8): 11.11
Log2 Expression Level (gene #21 of Table 8): 9.27
Log2 Expression Level (gene #22 of Table 8): 8.24
Log2 Expression Level (gene #23 of Table 8): 6.89
Log2 Expression Level (gene #24 of Table 8): 8.10
Log2 Expression Level (gene #25 of Table 8): 8.10
Log2 Expression Level (gene #26 of Table 8): 8.56
Log2 Expression Level (gene #27 of Table 8): 8.56
Log2 Expression Level (gene #28 of Table 8): 8.56
Log2 Expression Level (gene #29 of Table 8): 7.22
Log2 Expression Level (gene #30 of Table 8): 8.92
Log2 Expression Level (gene #31 of Table 8): 8.92
Log2 Expression Level (gene #32 of Table 8): 8.92
Log2 Expression Level (gene #33 of Table 8): 6.54
Log2 Expression Level (gene #34 of Table 8): 7.61
Log2 Expression Level (gene #35 of Table 8): 7.61
Log2 Expression Level (gene #36 of Table 8): 9.82
Log2 Expression Level (gene #37 of Table 8): 9.82
Log2 Expression Level (gene #38 of Table 8): 9.82
Log2 Expression Level (gene #39 of Table 8): 8.18
Log2 Expression Level (gene #40 of Table 8): 8.24
Log2 Expression Level (gene #41 of Table 8): 8.44
Log2 Expression Level (gene #42 of Table 8): 8.07
Log2 Expression Level (gene #43 of Table 8): 8.07
Log2 Expression Level (gene #44 of Table 8): 8.44
Log2 Expression Level (gene #45 of Table 8): 8.07
Log2 Expression Level (gene #46 of Table 8): 8.44
Log2 Expression Level (gene #47 of Table 8): 8.96
Log2 Expression Level (gene #48 of Table 8): 8.96
Log2 Expression Level (gene #49 of Table 8): 8.96
Log2 Expression Level (gene #50 of Table 8): 10.11
Log2 Expression Level (gene #51 of Table 8): 8.84
Log2 Expression Level (gene #52 of Table 8): 10.36
Log2 Expression Level (gene #53 of Table 8): 8.58
Log2 Expression Level (gene #54 of Table 8): 10.63
Log2 Expression Level (gene #55 of Table 8): 7.56
